Where two headings read alike, the source gives them in different places.
Columns and labels:
MV4-11 cells = assay: Leukemia cell proliferation inhibition test (ATPlite), MV4-11; type: cell-based; conditions: read-out: MV4-11 cell proliferation inhibition effect
How it was run: (§1)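 Molm-13 or MV4-11 cells at 10,000 cells/well in RPMI with 10% FBS and pen/strep were exposed to serially diluted compound for 72 h at 37 °C, 5% CO2. Total cellular ATP was read by luciferase luminescence. GI50 was taken relative to 0.1% DMSO control, from duplicates by sigmoid non-linear regression.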

Molm-13 cells = assay: Leukemia cell proliferation inhibition test (ATPlite), Molm-13; type: cell-based; conditions: read-out: MOLM13 cell proliferation inhibition effect
How it was run: as §1

[1] = target: T1, human FLT3 protein (FLT3 (WT)) (Homo sapiens, UniProt P36888); assay: FLT3 inhibition test (FLT3 enzyme inhibition, time-resolved fluorescence of substrate peptide phosphorylation); type: biochemical; conditions: read-out: FLT3 (WT) enzyme inhibition activity
T1 construct: human FLT3 protein (intracellular region, 564 to 993 aa); GST; purchased Carna Biosciences; host or cells: baculovirus expression system
T1 sequence (P36888 564-993): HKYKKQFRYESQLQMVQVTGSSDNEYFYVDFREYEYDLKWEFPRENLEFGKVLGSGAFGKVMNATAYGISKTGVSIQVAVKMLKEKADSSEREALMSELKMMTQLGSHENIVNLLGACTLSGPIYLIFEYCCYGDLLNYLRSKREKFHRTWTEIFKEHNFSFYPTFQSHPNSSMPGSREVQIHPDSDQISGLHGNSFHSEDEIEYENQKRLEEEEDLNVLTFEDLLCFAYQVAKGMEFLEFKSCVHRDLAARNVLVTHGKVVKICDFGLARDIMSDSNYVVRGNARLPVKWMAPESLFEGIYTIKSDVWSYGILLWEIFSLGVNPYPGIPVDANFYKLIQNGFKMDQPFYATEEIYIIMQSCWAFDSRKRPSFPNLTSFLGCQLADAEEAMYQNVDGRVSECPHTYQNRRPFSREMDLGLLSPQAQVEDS
How it was run: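 Substrate peptide phosphorylation detected by time-resolved fluorescence after a 30 min kinase reaction at 25° C with 50 μM ATP (final). Beforehand, compound and FLT3 (WT, 1.2 μg) stood 15 min at 25° C in HEPES buffer pH 7.5 containing MgCl2, NaCl, BSA and DTT.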

[2] = Homo sapiens, MV4-11, 72 h, MV4-11, 72 hours culture, ATPlite, GI50 per method
[3] = Homo sapiens, MOLM-13, 72 h, Molm-13, 72 hours culture, ATPlite, GI50 per method
[4] = GST-fused human FLT3 (564 to 993 aa), ATP 50 μM
[5] = Homo sapiens, MV4-11, MV4-11 cell
[6] = Homo sapiens, MOLM-13, MOLM13 cell

SMILES	IC50 (MV4-11 cells; [2])	IC50 (Molm-13 cells; [3])	IC50 [1, 4]	further results
C[C@@H](C(=O)NCCCC#Cc1cnc(Nc2ccnc(F)c2)nc1N1CCCC1)N(C)C(=O)/C=C/CN(C)C [Compound 9-12, (S,E)-4-(Dimethylamino)-N-(1-((5-(2-((2-fluoropyridin-4-yl)amino)-4-(pyrrolidin-1-yl)pyrimidin-5-yl)-4-pentyn-1-yl)amino)-1-oxopropan-2-yl)-N-methyl-2-butenamide]	< 10 nM	< 10 nM	< 10 nM	
CCCNc1nc(Nc2ccc(C#N)cc2)ncc1C#CCCCNC(=O)[C@@H]1C[C@@H](OC)CN1C(=O)/C=C/CN(C)C [Compound 7-60]	< 10 nM	< 10 nM	< 10 nM	
CCCNc1nc(NCCc2ccncc2)ncc1C(=O)Nc1cccc(NC(=O)CNC(=O)/C=C/CN2CC(C)NC(C)C2)c1 (stereo not drawn) [Compound 2-15]	100 to 1000 nM	100 to 1000 nM	< 10 nM	
CCCNc1nc(Nc2ccc(C#N)cc2)ncc1C#CCCCNC(=O)[C@H]1CCCN1C(=O)/C=C/CN(C)C [Compound 7-36]	< 10 nM	10 to 100 nM	< 10 nM	
COCCCNc1nc(Nc2ccc(C#N)cc2)ncc1C#C[C@H]1C[C@@H](NC(=O)[C@H](C)N(C)C(=O)/C=C/CN(C)C)C1 [Compound 15-16, (E)-N—((S)-1-(((1S,3R)-3-((2-((4-Cyanophenyl)amino)-4-((3-methoxypropyl)amino)pyrimidin-5-yl)ethynyl)cyclobutyl)amino)-1-oxopropan-2-yl)-4-(dimethylamino)-N-methyl-2-butenamide]	< 10 nM	< 10 nM	< 10 nM	
CN(C)C/C=C/C(=O)N(C)CC(=O)NCCCC#Cc1cnc(Nc2ccc(F)nc2)nc1NCC(F)(F)F [Compound 10-36]	< 10 nM	< 10 nM	< 10 nM	
CCCNc1nc(Nc2cccc(C#N)c2)ncc1C#CCCCNC(=O)[C@H](C)N(C)C(=O)/C=C/CN(C)C [Compound 7-3, (S,E)-N-(1-((5-(2-((3-Cyanophenyl)amino)-4-(propylamino)pyrimidin-5-yl)-4-pentyn-1-yl)amino)-1-oxopropan-2-yl)-4-(dimethylamino)-N-methyl-2-butenamide]	< 10 nM	< 10 nM	< 10 nM	
CCCNc1nc(Nc2ccc(C#N)cc2)ncc1C#CCCCNC(=O)CN(CC)C(=O)/C=C/CN(C)C [Compound 7-39]	< 10 nM	< 10 nM	< 10 nM	
CCCNc1nc(Nc2cccc(F)c2)ncc1C#CCCCNC(=O)[C@H](C(C)CC)N(C)C(=O)/C=C/CN(C)C (stereo partly drawn) [Compound 7-12]	100 to 1000 nM	100 to 1000 nM	10 to 100 nM	
CC(C)CCNc1nc(Nc2ccc(C#N)cc2)ncc1C#CCCCNC(=O)[C@H](C)N(C)C(=O)/C=C/CN(C)C [Compound 10-13]	< 10 nM	< 10 nM	< 10 nM	
C[C@@H](C(=O)NCCCC#Cc1cnc(Nc2ccc(F)cc2)nc1N1CCN(C)CC1)N(C)C(=O)/C=C/CN(C)C [Compound 10-28]	< 10 nM	10 to 100 nM	< 10 nM	
C[C@@H](C(=O)NCCCC#Cc1cnc(Nc2ccc(C#N)cc2)nc1NC1CCC1)N(C)C(=O)/C=C/CN(C)C [Compound 10-47]	< 10 nM	< 10 nM	< 10 nM	
CCCNc1nc(Nc2cnc3[nH]nc(C)c3c2)ncc1C#CCCCNC(=O)[C@@H]1CCCN1C(=O)/C=C/CN(C)C [Compound 22-56, (S,E)-1-(4-(Dimethylamino)-2-butenoyl)-N-(5-(2-((3-methyl-1H-pyrazolo[3,4-b]pyridin-5-yl)amino)-4-(propylamino)pyrimidin-5-yl)-4-pentyn-1-yl)pyrrolidine-2-carboxamide]				IC50 (MV4-11 cells; [5]): < 10 nM; IC50 (Molm-13 cells; [6]): < 10 nM; IC50 ([1]; FLT3 (WT)): < 10 nM
CCCNc1nc(Nc2cccc(F)c2)ncc1C#CCCCNC(=O)[C@H](CC)N(C)C(=O)/C=C/CN(C)C [Compound 7-17]	< 10 nM	< 10 nM	< 10 nM	
C=CC(=O)Nc1cc(NC(=O)c2cnc(NCCc3ccncc3)nc2NCCC)cc(C(F)(F)F)c1 [Compound 2-28]	100 to 1000 nM	100 to 1000 nM	100 to 1000 nM	
CCCNc1nc(Nc2ccc3ncccc3c2)ncc1C#CCCCNC(=O)[C@H](C)N(C)C(=O)/C=C/CN(C)C [Compound 22-2]				IC50 (MV4-11 cells; [5]): < 10 nM; IC50 (Molm-13 cells; [6]): < 10 nM; IC50 ([1]; FLT3 (WT)): < 10 nM
COCCCNc1nc(Nc2ccnc(OC)c2)ncc1C#CCCCNC(=O)[C@@H]1C[C@H](F)CN1C(=O)/C=C/CN(C)C [Compound 9-34, (2S,4S)-1-((E)-4-(Dimethylamino)-2-butenoyl)-4-fluoro-N-(5-(4-((3-methoxypropyl)amino)-2-((methoxypyridin-4-yl)amino)pyrimidin-5-yl)-4-pentyn-1-yl)pyrrolidine-2-carboxamide]	< 10 nM	< 10 nM	< 10 nM	
CCCNc1nc(Nc2ccc(OC)nc2)ncc1C#CCCCNC(=O)[C@H](C)N(C)C(=O)/C=C/CN(C)C [Compound 7-23]	< 10 nM	10 to 100 nM	< 10 nM	
C=CC(=O)N(C)CC(=O)NCCCNC(=O)c1cnc(Nc2ccc3cnncc3c2)nc1NCCC [Compound 6-10A, N-(3-(2-(N-methylacrylylamido)actamido)propyl)-2-((phthalazin-6-yl)amino)-4-(propylamino)pyrimidine-5-carboxamide]	10 to 100 nM	100 to 1000 nM	< 10 nM	
CCCNc1nc(Nc2cccc(F)c2)ncc1C#CCCCNC(=O)[C@@H]1C[C@H](F)CN1C(=O)/C=C/CN(C)C [Compound 7-49]	< 10 nM	< 10 nM	< 10 nM	
CCCNc1nc(Nc2cccc(-n3cccn3)c2)ncc1C#CCCCNC(=O)[C@H](C)N(C)C(=O)/C=C/CN(C)C [Compound 22-18]				IC50 (MV4-11 cells; [5]): < 10 nM; IC50 (Molm-13 cells; [6]): < 10 nM; IC50 ([1]; FLT3 (WT)): < 10 nM
CCCNc1nc(Nc2ccc(C(N)=O)cc2)ncc1C(=O)NCCCNC(C)(C)CNC(=O)/C=C/CN(C)C [Compound 3-24]	10 to 100 nM	100 to 1000 nM	< 10 nM	
CCCNc1nc(Nc2ccnc(F)c2)ncc1C#CCCCNC(=O)[C@H](C)N(C)C(=O)/C=C/CN(C)C [Compound 9-13, (S,E)-4-(Dimethylamino)-N-(1-((5-(2-((2-fluoropyridin-4-yl)amino)-4-(propylamino)pyrimidin-5-yl)-4-pentyn-1-yl)amino)-1-oxopropan-2-yl)-N-methyl-2-butenamide]	< 10 nM	< 10 nM	< 10 nM	
CCCNc1nc(Nc2ccc(C(N)=O)cc2)ncc1C(=O)Nc1cccc(NC(=O)[C@H](C)N(C)C(=O)/C=C/CNC)c1 [Compound 4-2]	< 10 nM	< 10 nM	< 10 nM	
CCCNc1nc(Nc2ccc(C(N)=O)cc2)ncc1C(=O)N[C@H]1CCC[C@H](Nc2ccccc2NC(=O)/C=C/CN(C)C)C1 [Compound 3-27]			< 10 nM	IC50 (MV4-11 cells; MV4-11, 72 hours culture, ATPlite, GI50 per method): 10 to 100 nM; IC50 (Molm-13 cells; Molm-13, 72 hours culture, ATPlite, GI50 per method): 10 to 100 nM
CCCNc1nc(Nc2cncc(F)c2)ncc1C#CC(C)(C)CCNC(=O)[C@H](C)N(C)C(=O)/C=C/CN(C)C [Compound 9-21]	< 10 nM	10 to 100 nM	< 10 nM	
C=CC(=O)NCC(=O)Nc1cccc(NC(=O)c2cnc(NCCc3ccncc3)nc2NCCC)c1 [Compound 2-1, N-(3-(2-(acrylylamido)acetamido)phenyl)-4-(propylamino)-2-((2-(pyridin-4-yl)ethyl)amino)pyrimidine-5-carboxamide]			< 10 nM	IC50 (MV4-11 cells; Homo sapiens, MV4-11, 72 hours culture, ATPlite, GI50 per method): 10 to 100 nM; IC50 (Molm-13 cells; Homo sapiens, Molm-13, 72 hours culture, ATPlite, GI50 per method): 10 to 100 nM
C[C@@H](C(=O)NCCCC#Cc1cnc(Nc2ccc(C#N)cc2)nc1-n1nccn1)N(C)C(=O)/C=C/CN(C)C [Compound 20-3]	< 10 nM	< 10 nM	10 to 100 nM	
CNc1nc(Nc2cccc(F)c2)ncc1C#C[C@H]1C[C@@H](NC(=O)[C@H](C)N(C)C(=O)/C=C/CN(C)C)C1 [Compound 13-13, (E)-4-(Dimethylamino)-N—((S)-1-(((1S,3R)-3-((2-((3-fluorophenyl)amino)-4-(methylamino)pyrimidin-5-yl)ethynyl)cyclobutyl)amino)-1-oxopropan-2-yl)-N-methyl-2-butenamide]	< 10 nM	< 10 nM	< 10 nM	
